Results on 17 compounds are retold here after patent US7718668B2, “Salts of 6-heterocycle substituted hexahydrophenanthridine derivatives” (Nycomed GmbH, priority 2005, dated 2010).

Structures are written as SMILES. Counter-ions that a name gives are not always drawn.

By melting point is commonly meant the temperature, or range, at which the solid turns liquid.

`CCOc1cc2c(cc1OC)C(c1ccc(OC)nc1OC)=N[C@@H]1CC[C@@H](O)C[C@H]21` (as salt: hydrobromid) [compound 8, (2R,4aR,10bR)-6-(2,6-Dimethoxy-pyridin-3-yl)-9-ethoxy-8-methoxy-1,2,3,4,4a, 10b-hexahydro-phenanthridin-2-ol] registered a melting point of 163 °C. Take `CCOc1cc2c(cc1OC)C(c1ccc(OC)nc1OC)=N[C@@H]1CC[C@@H](O)C[C@H]21` (as salt: tosylate) [compound 8, (2R,4aR,10bR)-6-(2,6-Dimethoxy-pyridin-3-yl)-9-ethoxy-8-methoxy-1,2,3,4,4a, 10b-hexahydro-phenanthridin-2-ol]: the melting point stood at 218 °C. The same measure for `CCOc1cc2c(cc1OC)C(c1cnc(N(C)C)nc1)=N[C@@H]1CC[C@@H](O)C[C@H]21` (as salt: fumarate) [compound 13, (2R,4aR,10bR)-6-(2-Dimethylamino-pyrimidin-5-yl)-9-ethoxy-8-methoxy-1,2,3,4,4a, 10b-hexahydro-phenanthridin-2-ol]: 210 °C; for `CCOc1cc2c(cc1OC)C(c1ccc(OC)nc1)=N[C@@H]1CC[C@@H](O)C[C@H]21` (as salt: fumarate) [compound 10, (2R,4aR,10bR)-9-Ethoxy-8-methoxy-6-(6-methoxy-pyridin-3-yl)-1,2,3,4,4a, 10b-hexahydro-phenanthridin-2-ol]: 173 °C; for `CCOc1cc2c(cc1OC)C(c1cnc(N(C)C)nc1OC)=N[C@@H]1CC[C@@H](O)C[C@H]21` [compound 11, (2R,4aR,10bR)-6-(2-Dimethylamino-4-methoxy-pyrimidin-5-yl)-9-ethoxy-8-methoxy-1,2,3,4,4a, 10b-hexahydro-phenanthridin-2-ol]: 124 °C. The same measure for `CCOc1cc2c(cc1OC)C(c1ccc(-n3cccn3)nc1)=N[C@@H]1CC[C@@H](O)C[C@H]21` (as salt: fumarate) [compound 3, (2R,4aR,10bR)-9-Ethoxy-8-methoxy-6-(6-pyrazol-1-yl-pyridin-3-yl)-1,2,3,4,4a, 10b-hexahydro-phenanthridin-2-ol]: 170 °C. `CCOc1cc2c(cc1OC)C(c1cnc(OC)nc1)=N[C@@H]1CC[C@@H](O)C[C@H]21` [compound 4, (2R,4aR,10bR)-9-Ethoxy-8-methoxy-6-(2-methoxy-pyrimidin-5-yl)-1,2,3,4,4a, 10b-hexahydro-phenanthridin-2-ol] registered a melting point of 124 °C. Regarding `CCOc1cc2c(cc1OC)C(c1ccc(OC)nc1OC)=N[C@@H]1CC[C@@H](O)C[C@H]21` (as salt: hydrochloride) [compound 8, (2R,4aR,10bR)-6-(2,6-Dimethoxy-pyridin-3-yl)-9-ethoxy-8-methoxy-1,2,3,4,4a, 10b-hexahydro-phenanthridin-2-ol], the melting point was 164 °C. The same measure for `CCOc1cc2c(cc1OC)C(c1cnc(OC)cc1OC)=N[C@@H]1CC[C@@H](O)C[C@H]21` (as salt: fumarate) [compound 12, (2R,4aR,10bR)-6-(4,6-Dimethoxy-pyridin-3-yl)-9-ethoxy-8-methoxy-1,2,3,4,4a, 10b-hexahydro-phenanthridin-2-ol]: 194 °C. The same measure for `CCOc1cc2c(cc1OC)C(c1ccc(OC)nc1OC)=N[C@@H]1CC[C@@H](O)C[C@H]21` (as salt: mesylate) [compound 8, (2R,4aR,10bR)-6-(2,6-Dimethoxy-pyridin-3-yl)-9-ethoxy-8-methoxy-1,2,3,4,4a, 10b-hexahydro-phenanthridin-2-ol]: 193 °C. To `CCOc1cc2c(cc1OC)C(c1cnc(N(C)C)nc1)=N[C@@H]1CC[C@@H](O)C[C@H]21` [compound 13, (2R,4aR,10bR)-6-(2-Dimethylamino-pyrimidin-5-yl)-9-ethoxy-8-methoxy-1,2,3,4,4a, 10b-hexahydro-phenanthridin-2-ol] belongs 112 °C; to `CCOc1cc2c(cc1OC)C(c1cnc(N(C)C)nc1)=N[C@@H]1CC[C@@H](O)C[C@H]21` (as salt: tartrate) [compound 13, (2R,4aR,10bR)-6-(2-Dimethylamino-pyrimidin-5-yl)-9-ethoxy-8-methoxy-1,2,3,4,4a, 10b-hexahydro-phenanthridin-2-ol], 206 °C.

`CCOc1cc2c(cc1OC)C(c1cnc(N(C)C)nc1OC)=N[C@@H]1CC[C@@H](O)C[C@H]21` (as salt: tartrate) [compound 11, (2R,4aR,10bR)-6-(2-Dimethylamino-4-methoxy-pyrimidin-5-yl)-9-ethoxy-8-methoxy-1,2,3,4,4a, 10b-hexahydro-phenanthridin-2-ol] registered a melting point of 249 °C.

The compound `CCOc1cc2c(cc1OC)C(c1ccc(=O)n(C)c1)=N[C@@H]1CC[C@@H](O)C[C@H]21` [compound 9, 5-((2R,4aR,10bR)-9-Ethoxy-2-hydroxy-8-methoxy-1,2,3,4,4a, 10b-hexahydro-phenanthridin-6-yl)-1-methyl-1H-pyridin-2-one] had a melting point of 147 °C.

On to `CCOc1cc2c(cc1OC)C(c1cnc(N(C)C)nc1OC)=N[C@@H]1CC[C@@H](O)C[C@H]21` (as salt: fumarate) [compound 11, (2R,4aR,10bR)-6-(2-Dimethylamino-4-methoxy-pyrimidin-5-yl)-9-ethoxy-8-methoxy-1,2,3,4,4a, 10b-hexahydro-phenanthridin-2-ol], for which the melting point stood at 123 °C. `CCOc1cc2c(cc1OC)C(c1ccc(=O)n(C)c1)=N[C@@H]1CC[C@@H](O)C[C@H]21` (as salt: tartrate) [compound 9, 5-((2R,4aR,10bR)-9-Ethoxy-2-hydroxy-8-methoxy-1,2,3,4,4a, 10b-hexahydro-phenanthridin-6-yl)-1-methyl-1H-pyridin-2-one]: the melting point was 205 °C. For the compound `CCOc1cc2c(cc1OC)C(c1ccc(=O)n(C)c1)=N[C@@H]1CC[C@@H](O)C[C@H]21` (as salt: fumarate) [compound 9, 5-((2R,4aR,10bR)-9-Ethoxy-2-hydroxy-8-methoxy-1,2,3,4,4a, 10b-hexahydro-phenanthridin-6-yl)-1-methyl-1H-pyridin-2-one], the melting point was found to be 156 °C.
